Results on two compounds are retold here after article PMC6376154 (International Journal for Parasitology: Drugs and Drug …, 2019).

The CC50 is the concentration at which the toxic effect on the cells reaches its halfway point. A high value points to lower toxicity to the cells.

Series [1] deals with P. falciparum 3D7 asexual blood stage. Particulars: cited from earlier work.
Details of series [2]: method as in MMV data sheet. The conditions noted are these: at 5 uM; ref MMV data sheet; cited from earlier work.
In series [3] the test system is Theileria annulata infected cell lines. Also on record: method as in Hostettler et al., 2016. The conditions noted are these: ref Hostettler et al., 2016; cited from earlier work.
Series [4] has as its system human foreskin fibroblast control cells. Also on record: method as in Hostettler et al., 2016. The conditions noted are these: T. annulata assay; ref Hostettler et al., 2016; cited from earlier work.
Series [5] has as its system T. annulata gene TaSP. Set-up: method as in Hostettler et al., 2016. The conditions noted are these: ref Hostettler et al., 2016; cited from earlier work.
A short description of series [6]: 3H-thymidine incorporation toxicity assay on ConA-stimulated uninfected bovine PBMC (CC50). The conditions noted are these: bovine, uninfected bovine PBMC stimulated with ConA (Con A blasts), CC50 (μM) Con A blasts, uninfected bovine PBMC stimulated with ConA, 48 h compound, 3H-thymidine incorporation.
Protocol: (§1) All the MMV compounds were initially tested for inhibitory activity on the growth of F100TpM, a bovine lymphocyte cell line infected by T. parva. […] All compounds were tested in triplicate.
(§2) The radiolabeled precursor ^3H-thymidine is incorporated into DNA strands during cell replication and radioisotope incorporation is often used as a measure of cell proliferation.
(§3) IC50 values were calculated using the Graph Pad Prism 7 software (GraphPad Software, Inc., La Jolla, CA), and average values of radio-isotope incorporation in wells with and without compound on the growth of F100TpM cells. The CC50 values were calculated using ^3H-thymidine incorporation values determined on the growth of PBMC stimulated with ConA. The therapeutic index of a compound was calculated by dividing the CC50 value with the IC50 value.
For series [7], the system named is F100TpM, a bovine lymphocyte cell line infected by T. parva. Briefly: 3H-thymidine incorporation growth assay on F100TpM cells (screen at 1 μM and IC50 titration). (Uptake of a labelled nucleoside into DNA is a usual measure of proliferation.);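 further: growth inhibition compared against wells lacking compound, run in triplicate, and CC50 derived from 3H-thymidine uptake by PBMC stimulated with ConA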
Protocol: as §1, §2, §3

Each structure is given as a SMILES string. Read-outs that look alike come from different tables or passages of the source.

Take `CCOc1cccc(C(=O)Nc2ccc(-c3nc4ccccc4[nH]3)cc2)c1` [MMV019202]: in series [1] (2.5 uM, Comment column, ref MMV data sheet), the “% inh. At 2.5 uM” value is 97%. In addition, the EC50 in series [1] (value(s) per source (GSK, GNF, StJude), separated by semicolon, ref ChEMBL-NTD, read-out: CHEMBL EC50) is 1010 nM. Also, in series [2], the “Solubility (Comment)” value is “Solubility issue at 5 uM”.

For `COc1ccc2c(=O)cc(C(Cl)(Cl)Cl)oc2c1` [MMV665820], the “percent_inh @ 5 uM” value in series [1] (5 uM, MMV Malaria Box data sheet, ref MMV data sheets) is 94%. In addition, the EC50 was 520 nM in series [1] (MMV Malaria Box data sheet, ref MMV data sheets, read-out: EC50_nM) and 15000 nM in series [1] (source StJude, ref ChEMBL_NTD, read-out: CHEMBL EC50). The “inhibitory activity on T. annulata cell lines” value in series [3] is recorded as “inhibitory”. For the same compound, the “viability of human foreskin fibroblast control cells” value in series [4] is “did not impair viability”. Further, the “lowering of relative expression of T. annulata gene TaSP” value in series [5] is recorded as “failed to lower the relative expression of T. annulata gene TaSP by 50%”. The compound also showed a CC50 at 48 h in series [6] of 0.25 µM. The IC50 in series [7] (Bos taurus, Lymphocyte, read-out: IC50 (μM) F100TpM, T. parva infected lymphocyte cell line, 48 h compound, 3H-thymidine incorporation) came to 0.15 µM. Besides, in series [7] (CC50 on Con A blasts divided by IC50 on F100TpM), the “TI (CC50/IC50), therapeutic index” value is listed as 1.67.
